In patent publication US12655139B2, “Isoxazolidines as RIPK1 inhibitors and use thereof” (SANOFI, priority 2020, dated 2026):
Where two headings read alike, the source gives them in different places.

Key:
[1] = biological target: T1, hRIPK1 (aa 1-375) fusion protein (Homo sapiens, UniProt Q13546); assay: ADP-Glo kinase assay, RIPK1 autophosphorylation; type: biochemical; conditions: Table 1
T1 construct: hRIPK1 (aa 1-375) fusion protein
T1 sequence (Q13546 1-375): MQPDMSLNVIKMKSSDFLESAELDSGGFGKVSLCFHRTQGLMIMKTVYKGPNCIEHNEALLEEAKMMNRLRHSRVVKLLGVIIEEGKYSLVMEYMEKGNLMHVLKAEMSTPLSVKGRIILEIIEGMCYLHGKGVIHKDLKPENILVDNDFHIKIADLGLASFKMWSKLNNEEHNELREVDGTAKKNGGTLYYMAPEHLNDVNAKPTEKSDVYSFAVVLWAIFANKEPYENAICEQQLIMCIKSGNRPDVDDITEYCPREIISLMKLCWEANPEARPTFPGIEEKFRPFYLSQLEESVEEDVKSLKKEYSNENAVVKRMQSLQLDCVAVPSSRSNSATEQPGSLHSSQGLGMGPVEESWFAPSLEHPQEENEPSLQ
Procedure: Evaluation of Receptor-Interacting Protein Kinase 1 Inhibition.
The catalytic activity of RIPK1 was measured by monitoring the conversion of Adenosine triphosphate (ATP) to Adenosine diphosphate (ADP) due to autophosphorylation using an ADP-Glo kinase kit (Promega, catalog no. V9104).
After another 240 minutes incubation at room temperature, 5 μl Promega ADP-Glo reagent I were added to quench the reaction and deplete unconsumed ATP. After an incubation period of 30 minutes, 10 μl Promega ADP-Glo detection reagent II were added resulting in conversion of ADP to ATP, which generates a light-reaction between luciferase and luciferin. Luminescence was quantified after 30 minutes with a Pherastar FS (BMG LABTECH, Ortenberg).
The adjustment was obtained by nonlinear regression using the Levenberg Marquardt algorithm.

[2] = test system: U937 cells; assay: Cellular assay in U937 cells on cell death (necroptosis), TNFα/zVAD.fmk; type: cell-based; conditions: read-out: U937 IC50
Summary of the method: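 U937 cells with 100 ng/ml TNFα plus 50 μM zVAD.fmk (pre-addition suspension levels) received 10 compound concentrations (10 μM–0.26 nM or 1 μM–0.07 nM) for 18–24 h at 37 °C. Live cells were read by MTS formazan absorbance at 490 nm after 4 h. % inhibition is relative to the maximal value without TNFα/zVAD.fmk.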

SMILES	IC50 [1] [nM]	IC50 ([2]; Homo sapiens, U-937, Table 2) [nM]	IC50 ([2]; Table 2) [nM]
Cc1cc([C@@H]2CCON2C(=O)C2CCN(c3cc(C(N)=O)ncn3)CC2)co1 [Ex. 109]	19.3	5.31	–
N#Cc1cncc([C@@H]2CCON2C(=O)C2CCN(c3ncc(F)c(C#N)n3)CC2)c1 [Ex. 111]	28.2	11.6	–
Cc1nsc(N2CCC(C(=O)N3OCC[C@H]3c3cncc(C#N)c3)CC2)n1 [Ex. 113]	122	773	–
N#Cc1cncc([C@@H]2CCON2C(=O)C2(F)CCN(c3nccc(C(N)=O)n3)CC2(F)F)c1 (some centres unmarked) [Ex. 115]	24.7	62.7	–
COc1nc(N2CCC(C(=O)N3OCC[C@H]3c3cncc(C)n3)CC2)ncc1F [Ex. 116]	21.4	4.5	–
N#Cc1cncc([C@@H]2CCON2C(=O)C2CCN(c3cnc(Cl)nc3C(=O)O)CC2)c1 [Ex. 121]	> 33000	4440	–
N#Cc1cncc([C@@H]2CCON2C(=O)C2CCN(c3ncc(F)c(C(N)=O)n3)CC2F)c1 (some centres unmarked) [Ex. 154]	21.9	–	38.8
N#Cc1cncc([C@@H]2CCON2C(=O)C2CCN(c3ccnc(Br)n3)CC2)c1 [Ex. 157]	43.9	114	–
N#Cc1cncc([C@@H]2CCON2C(=O)C2CCN(c3cc(Br)ncn3)CC2)c1 [Ex. 165]	25	52.7	–
N#Cc1cc([C@@H]2CCON2C(=O)C2CCN(c3ncc(F)c(C(N)=O)n3)CC2)cs1 [Ex. 166]	37.2	59.7	–
N#Cc1cc([C@@H]2CCON2C(=O)C2CCN(c3ncc(F)c(C(N)=O)n3)CC2)co1 [Ex. 167]	31.1	48	–
N#Cc1cc([C@@H]2CCON2C(=O)C2CCN(c3nccc(C(N)=O)n3)CC2)cs1 [Ex. 168]	45.4	79.2	–
N#Cc1cc([C@@H]2CCON2C(=O)C2CCN(c3ncc(F)c(C(N)=O)n3)CC2)cnn1 [Ex. 178]	112	1300	–
Nc1nc(Cl)nc(N2CCC(C(=O)N3OCC[C@H]3c3cnccn3)CC2)n1 [Ex. 184]	3.26	1.79	–
N#Cc1nc([C@@H]2CCON2C(=O)C2CCN(c3ncc(F)c(C(N)=O)n3)CC2)cs1 [Ex. 189]	30.3	102	–
N#Cc1cncc([C@@H]2CCON2C(=O)C2CCN(c3nccc(C(N)=O)n3)CC2)c1 [compound 4]	23.8	22.1	–
Cc1cncc([C@@H]2CCON2C(=O)C2CCN(c3nccc(C(N)=O)n3)CC2)n1 [compound 44]	9.31	8.47	–
N#Cc1cncc([C@@H]2CCON2C(=O)C2CCN(c3ncc(F)c(C(N)=O)n3)CC2)c1 [compound 68]	14.7	3.25	–
NC(=O)c1nc(N2CCC(C(=O)N3OCC[C@H]3c3cnccn3)CC2)ncc1F [compound 75]	8.46	2.73	–
CC1(CCNC(=O)c2ccnc(N3CCC(C(=O)N4OCC[C@H]4c4cncc(C#N)c4)CC3)n2)CC1 [compound 77, 2-[4-[(3S)-3-(5-cyano-3-pyridyl)isoxazolidine-2-carbonyl]-1-piperidyl]-N-[2-(1-methylcyclo-propyl)ethyl]pyrimidine-4-carboxamide]	28.1	38.5	–
CC(C)(C)OC(=O)N1CC(NC(=O)c2ccnc(N3CCC(C(=O)N4OCC[C@H]4c4cncc(C#N)c4)CC3)n2)C1 [compound 78, Tert-butyl 3-[[2-[4-[(3S)-3-(5-cyano-3-pyridyl)isoxazolidine-2-carbonyl]-1-piperidyl]pyrimidine-4-carbonyl]amino]azetidine-1-carboxylate]	52.9	316	–
Cc1cnc([C@@H]2CCON2C(=O)C2CCN(c3cc(C#N)ncn3)CC2)cn1 [compound 91, 6-[4-[(3S)-3-(5-methylpyrazin-2-yl)isoxazolidine-2-carbonyl]-1-piperidyl]pyrimidine-4-carbonitrile]	14.9	183	–
Cc1cc([C@@H]2CCON2C(=O)C2CCN(c3nccc(C(N)=O)n3)CC2)co1 [compound 110, (S)-2-(4-(3-(5-methylfuran-3-yl)isoxazolidine-2-carbonyl)piperidin-1-yl)pyrimidine-4-carboxamide]	17.3	1.69	–
N#Cc1nc(N2CCC(C(=O)N3OCC[C@H]3c3cnccn3)CC2)ncc1F [compound 120, 5-fluoro-2-[4-[(3S)-3-pyrazin-2-ylisoxazolidine-2-carbonyl]-1-piperidyl]pyrimidine-4-carbonitrile]	18.8	1.69	–
N#Cc1ccnc(N2CCC(F)(C(=O)N3OCC[C@H]3c3cnccn3)C(F)(F)C2)n1 (stereo partly drawn) [compound 124, 2-[3,3,4-trifluoro-4-[(3S)-3-pyrazin-2-ylisoxazolidine-2-carbonyl]-1-piperidyl]pyrimidine-4-carbonitrile]	39.2	31.3	–
NC(=O)c1nc(N2CCC(F)(C(=O)N3OCC[C@H]3c3cncc(F)c3)CC2)ncc1F [compound 126, (S)-5-fluoro-2-(4-fluoro-4-(3-(5-fluoropyridin-3-yl)isoxazolidine-2-carbonyl)piperidin-1-yl)pyrimidine-4-carboxamide]	25	39.6	–
Cc1ccc([C@@H]2CCON2C(=O)C2CCN(c3nccc(C#N)n3)CC2)cn1 [compound 127, (S)-2-(4-(3-(6-methylpyridin-3-yl)isoxazolidine-2-carbonyl)piperidin-1-yl)pyrimidine-4-carbonitrile]	24.1	53.3	–

Further compounds by falling IC50 [1], results first:

IC50 [1] [nM]	SMILES	IC50 ([2]; Homo sapiens, U-937, Table 2) [nM]	IC50 ([2]; Table 2) [nM]
17500	O=C(O)c1nc(Cl)ncc1N1CCC(C(=O)N2OCC[C@H]2c2cnccn2)CC1 [Ex. 164]	1970	–
297	N#Cc1cncc([C@@H]2CCON2C(=O)C2CCN(c3ccnc(C(N)=O)n3)CC2)c1 [Ex. 156]	927	–
81.6	N#Cc1ccc([C@@H]2CCON2C(=O)C2CCN(c3nccc(C(N)=O)n3)CC2)nc1 [Ex. 108]	1010	–
51.9	N#Cc1cc([C@@H]2CCON2C(=O)C2CCN(c3nccc(C(N)=O)n3)CC2)co1 [Ex. 171]	85.8	–
32	Cc1nc(Cl)nc(N2CCC(C(=O)N3OCC[C@H]3c3cnccn3)CC2)n1 [Ex. 180]	1050	–
31.8	N#Cc1cncc([C@@H]2CCON2C(=O)C2CCN(c3cc(Cl)ncn3)CC2)c1 [Ex. 159]	77.1	–
29.3	NC(=O)c1ccnc(N2CCC(F)(C(=O)N3OCC[C@H]3c3cnccn3)C(F)(F)C2)n1 (stereo partly drawn) [compound 122, 2-[3,3,4-trifluoro-4-[(3S)-3-pyrazin-2-ylisoxazolidine-2-carbonyl]-1-piperidyl]pyrimidine-4-carboxamide]	44.2	–
23.9	Cc1cncc([C@@H]2CCON2C(=O)C2CCN(c3nccc(C#N)n3)CC2)c1 [compound 131, (S)-2-(4-(3-(5-methylpyridin-3-yl)isoxazolidine-2-carbonyl)piperidin-1-yl)pyrimidine-4-carbonitrile]	34	–
22.3	NC(=O)c1nc(N2CCC(C(=O)N3OCC[C@H]3c3ccccn3)CC2)ncc1F [Ex. 175]	44.6	–
22.3	N#Cc1cncc([C@@H]2CCON2C(=O)C2CCN(c3nc(Cl)ncc3F)CC2)c1 [compound 130, 5-[(3S)-2-[1-(2-chloro-5-fluoro-pyrimidin-4-yl)piperidine-4-carbonyl]isoxazolidin-3-yl]pyridine-3-carbonitrile]	22.2	–
21.7	Cc1nc([C@@H]2CCON2C(=O)C2CCN(c3ncc(F)c(C(N)=O)n3)CC2)cs1 [Ex. 170]	16.5	–
21.1	N#Cc1cncc([C@@H]2CCON2C(=O)C2CCN(c3ncc(F)c(C(N)=O)n3)CC2)n1 [compound 119]	5.55	–
19.8	Cc1cncc([C@@H]2CCON2C(=O)C2CCN(c3cc(C#N)ncn3)CC2)c1 [compound 133, (S)-6-(4-(3-(5-methylpyridin-3-yl)isoxazolidine-2-carbonyl)piperidin-1-yl)pyrimidine-4-carbonitrile]	49.4	–
16.5	N#Cc1cncc([C@@H]2CCON2C(=O)C2CCN(c3ncc(F)c(C(N)=O)n3)CC2F)c1 (some centres unmarked) [Ex. 155]	–	4.06
14	COc1nc(N2CCC(C(=O)N3OCC[C@H]3c3cncc(C#N)c3)CC2)ncc1F [Ex. 114]	7.85	–
12.6	Cc1cnc([C@@H]2CCON2C(=O)C2CCN(c3ncc(F)c(C(N)=O)n3)CC2)cn1 [compound 90, 5-fluoro-2-[4-[(3S)-3-(5-methylpyrazin-2-yl)isoxazolidine-2-carbonyl]-1-piperidyl]pyrimidine-4-carboxamide]	38.1	–
